One data set relates to Musca domestica. As to the kind of experiment: Musca domestica test. The class given is in vivo. To be noted: application rate 100 ppm; adult houseflies; kill after 2 days. The procedure: (§1) Solvent: dimethyl sulphoxide
(§2) To produce an appropriate active ingredient formulation, 10 mg of active ingredient are mixed with 0.5 ml of dimethyl sulphoxide, and the concentrate is diluted with water to the desired concentration.
Vessels containing a sponge treated with sugar solution and the active ingredient formulation of the desired concentration are populated with 10 adult houseflies (Musca domestica).
After 2 days, the kill in % is determined. 100% means that all of the flies have been killed; 0% means that none of the flies have been killed.

The test system of the next data set is Lucilia cuprina. As to the kind of experiment: Lucilia cuprina test. The class given is in vivo. To be noted: application rate 100 ppm; L1 larvae in minced horsemeat; kill after 2 days. How it is done: as §1, §2
About 20 L1 larvae of the Australian sheep blowfly (Lucilia cuprina) are transferred into a test vessel containing minced horsemeat and the active ingredient preparation of the desired concentration.
After 2 days, the kill in % is determined. 100% means that all the larvae have been killed; 0% means that none of the larvae have been killed.

For the next data set, the system named is Ctenocephalides felis. As to the kind of experiment: Ctenocephalides felis - oral test. To be noted: application rate 100 ppm in citrated cattle blood; adult fleas; kill after 2 days. The class given is in vivo. How it is done: Ctenocephalides felis—Oral Test
as §1
For the purpose of producing an appropriate active ingredient formulation, 10 mg of active ingredient are mixed with 0.5 ml of dimethyl sulphoxide. Dilution with citrated cattle blood gives the desired concentration.
About 20 unfed adult cat fleas (Ctenocephalides felis) are placed into a chamber which is closed at the top and bottom with gauze. A metal cylinder whose bottom end is closed with parafilm is placed onto the chamber. The cylinder contains the blood/active ingredient preparation, which can be imbibed by the fleas through the parafilm membrane.
After 2 days, the kill in % is determined. 100% means that all of the fleas have been killed; 0% means that none of the fleas have been killed.

The test system of a further data set is Boophilus microplus. As to the kind of experiment: Boophilus microplus - injection test. To be noted: application rate 20 μg/animal; injected into engorged adult female ticks; laying of fertile eggs, after 7 days. The class given is in vivo. The procedure:
Boophilus microplus—Injection Test
as §1
To produce an appropriate active ingredient formulation, 10 mg of active ingredient are mixed with 0.5 ml of solvent and the concentrate is diluted with solvent to the desired concentration.
1 μl of the active ingredient solution is injected into the abdomen of 5 engorged adult female cattle ticks (Boophilus microplus). The animals are transferred into dishes and kept in a climate-controlled room.
Efficacy is assessed after 7 days by laying of fertile eggs. Eggs which are not visibly fertile are stored in a climate-controlled cabinet until the larvae hatch after about 42 days. An efficacy of 100% means that none of the ticks has laid any fertile eggs; 0% means that all the eggs are fertile.

A short description of data set [1]: logP determination by HPLC on a reversed-phase column (C18), EEC Directive 79/831 Annex V.A8. The class given is physicochemical. Particulars: for logP^a): HPLC-MS method a), Table I-T3; for log P: HPLC-MS, reversed-phase column (C18).

The term log P denotes the decadic logarithm of the partition coefficient of the neutral form, usually between octanol and water. A higher log P goes with higher lipophilicity.

SMILES strings stand for the structures.

As to `Cc1cc(C(F)(C(F)(F)F)C(F)(F)F)cc(C)c1-n1cc(-c2ccc(Cl)c(C(=O)NCC(F)(F)F)c2)cn1` [I-T3-2], the efficacy with Musca domestica, with Lucilia cuprina, with Ctenocephalides felis and with Boophilus microplus was 100% each time. Besides, in data set [1], the “logP^a)” value is listed as 4.7.
With `Cc1cc(C(F)(C(F)(F)F)C(F)(F)F)cc(C)c1-n1cc(-c2ccc(Cl)c(C(=O)NC3CSC3)c2)cn1` [I-T3-4], the efficacy in the data set on Musca domestica, in the data set with Lucilia cuprina, in the data set with Ctenocephalides felis and in the data set on Boophilus microplus was 100% each time. The “logP^a)” value in data set [1] was found to be 4.7.
In the case of `Cc1cc(C(F)(C(F)(F)F)C(F)(F)F)cc(C)c1-n1cc(-c2ccc(Cl)c(C(=O)NC3(C(F)(F)F)CC3)c2)cn1` [I-T3-5], the efficacy with Musca domestica, with Lucilia cuprina, with Ctenocephalides felis and in the data set with Boophilus microplus was 100% throughout. Besides, the “logP^a)” value in data set [1] stood at 4.6.
Regarding `Cc1cc(C(F)(C(F)(F)F)C(F)(F)F)cc(C)c1-n1cc(-c2cncc(C(=O)NC3(C#N)CC3)c2)cn1` [I-T3-8], the efficacy in the data set on Musca domestica, in the data set on Lucilia cuprina, in the data set with Ctenocephalides felis and in the data set with Boophilus microplus was 100% each time. In addition, the “logP^a)” value in data set [1] is listed as 3.4.
Take `Cc1cc(C(F)(C(F)(F)F)C(F)(F)F)cc(C)c1-n1cc(-c2cccc(C(=O)NC3(C#N)CC3)c2F)cn1` [I-T3-10]: the efficacy with Lucilia cuprina, in the data set with Ctenocephalides felis and with Boophilus microplus was 100% throughout. The “logP^a)” value in data set [1] is listed as 4.2.
For the compound `Cc1cc(C(F)(C(F)(F)F)C(F)(F)F)cc(C)c1-n1cc(-c2cc(C(=O)NC3(C#N)CC3)c(F)cc2Cl)cn1` [I-T3-12], the values for the efficacy with Lucilia cuprina, with Ctenocephalides felis and with Boophilus microplus were 80%, 100% and 100%, respectively. For the same compound, in data set [1], the “logP^a)” value is reported as 4.7.
Take `Cc1cc(C(F)(C(F)(F)F)C(F)(F)F)cc(C)c1-n1cc(-c2cc(C(=O)NC3CC3)cc(C(F)(F)F)c2)cn1` [I-T3-15]: the efficacy is reported as 100% in the data set on Lucilia cuprina, 90% in the data set on Ctenocephalides felis and 100% in the data set with Boophilus microplus. The “logP^a)” value in data set [1] is on record as 4.9.
Take `Cc1cc(C(F)(C(F)(F)F)C(F)(F)F)cc(C)c1-n1cc(-c2cc(C(=O)NC3(C#N)CC3)cc(C(F)(F)F)c2)cn1` [I-T3-18]: the efficacy in the data set on Lucilia cuprina, in the data set with Ctenocephalides felis and in the data set on Boophilus microplus was 100% each time. The “logP^a)” value in data set [1] stood at 4.7.
`O=C(NCC(F)(F)F)c1cc(-c2cnn(-c3ccc(C(F)(C(F)(F)F)C(F)(F)F)cc3Cl)c2)ccc1Cl` [I-T3-32]: the efficacy in the data set on Lucilia cuprina, with Ctenocephalides felis and with Boophilus microplus was 100% throughout. Also, the “logP^a)” value in data set [1] was 4.7.
For the compound `O=C(NCCC(F)(F)F)c1cc(-c2cnn(-c3ccc(C(F)(C(F)(F)F)C(F)(F)F)cc3Cl)c2)ccc1Cl` [I-T3-33], the efficacy in the data set with Lucilia cuprina, in the data set with Ctenocephalides felis and in the data set with Boophilus microplus was 100% in each case. Further, the “logP^a)” value in data set [1] was 4.7.
With `N#CC1(NC(=O)c2cc(-c3cnn(-c4ccc(C(F)(C(F)(F)F)C(F)(F)F)cc4OC(F)(F)F)c3)ccc2Cl)CC1` [I-T3-34], the efficacy in the data set with Musca domestica, with Lucilia cuprina, with Ctenocephalides felis and in the data set with Boophilus microplus was 100% throughout. Also, in data set [1], the “logP^a)” value is reported as 4.6.
For the compound `O=C(NCC(F)(F)F)c1cc(-c2cnn(-c3ccc(C(F)(C(F)(F)F)C(F)(F)F)cc3OC(F)(F)F)c2)ccc1Cl` [I-T3-36], the efficacy in the data set on Lucilia cuprina turned out to be 100%; with Ctenocephalides felis, 80%; in the data set on Boophilus microplus, 100%. Further, the “logP^a)” value in data set [1] is reported as 5.0.
Take `O=C(NC1CSC1)c1cc(-c2cnn(-c3ccc(C(F)(C(F)(F)F)C(F)(F)F)cc3OC(F)(F)F)c2)ccc1Cl` [I-T3-37]: the efficacy in the data set on Lucilia cuprina is 100%; with Ctenocephalides felis it was 90%; in the data set on Boophilus microplus, 100%. Moreover, in data set [1], the “logP^a)” value came out at 4.9.
With `CCc1cc(C(F)(C(F)(F)F)C(F)(F)F)ccc1-n1cc(-c2ccc(Cl)c(C(=O)NCC(F)(F)F)c2)cn1` [I-T3-40], the efficacy in the data set on Lucilia cuprina, in the data set with Ctenocephalides felis and with Boophilus microplus was 100% throughout. Besides, the “logP^a)” value in data set [1] stood at 4.9.
Turning to `CCc1cc(C(F)(C(F)(F)F)C(F)(F)F)ccc1-n1cc(-c2ccc(Cl)c(C(=O)NC3CSC3)c2)cn1` [I-T3-41], the efficacy in the data set on Lucilia cuprina is listed as 90%; with Ctenocephalides felis, 95%; in the data set on Boophilus microplus, 100%. The “logP^a)” value in data set [1] turned out to be 4.9.
In the same order, the values of `CCc1cc(C(F)(C(F)(F)F)C(F)(F)F)cc(C)c1-n1cc(-c2ccc(Cl)c(C(=O)NCC(F)(F)F)c2)cn1` [I-T3-45] are 100%, 95%, 100% and 5.0.
Turning to `N#CC1(NC(=O)c2cc(-c3cnn(-c4c(F)cc(C(F)(F)F)cc4F)c3)ccc2Cl)CC1` [I-T3-49], the efficacy with Lucilia cuprina, in the data set on Ctenocephalides felis and in the data set on Boophilus microplus was 100% throughout. Further, the “logP^a)” value in data set [1] was 3.2.
Take `N#CC1(NC(=O)c2cc(-c3cnn(-c4ncc(C(F)(F)F)cc4Cl)c3)ccc2Cl)CC1` [I-T3-59]: the efficacy in the data set on Lucilia cuprina, with Ctenocephalides felis and in the data set with Boophilus microplus was 100% each time. In addition, the “logP^a)” value in data set [1] stood at 3.1.
Take `O=C(NC1CC1)c1cc(-c2cnn(-c3ncc(C(F)(F)F)cc3Cl)c2)ccc1Cl` [I-T3-60]: the efficacy was found to be 90% with Lucilia cuprina, 90% in the data set with Ctenocephalides felis and 100% with Boophilus microplus. For the same compound, in data set [1], the “logP^a)” value worked out at 3.2.
`CCc1cc(C(F)(C(F)(F)F)C(F)(F)F)cc(C)c1-n1cc(-c2cccc(C(=O)NC3(C#N)CC3)c2F)cn1` [I-T3-69]: the efficacy was 95% in the data set on Lucilia cuprina, 100% in the data set on Ctenocephalides felis and 100% with Boophilus microplus. For the same compound, the “logP^a)” value in data set [1] came to 4.5.
On to `CCc1cc(C(F)(C(F)(F)F)C(F)(F)F)cc(C)c1-n1cc(-c2cccc(C(=O)NC3CC3)c2F)cn1` [I-T3-70], for which the efficacy in the data set with Lucilia cuprina was 100%; with Ctenocephalides felis, 95%; in the data set on Boophilus microplus, 100%. Further, in data set [1], the “logP^a)” value came to 4.7.
Consider `CCc1cc(C(F)(C(F)(F)F)C(F)(F)F)ccc1-n1cc(-c2cccc(C(=O)NC3(C#N)CC3)c2F)cn1` [I-T3-74], for which the results for the efficacy in the data set on Lucilia cuprina and in the data set with Boophilus microplus were 90% and 100%, respectively. In data set [1], the “logP^a)” value came out at 4.5.
For `CCc1cc(C(F)(C(F)(F)F)C(F)(F)F)ccc1-n1cc(-c2cccc(C(=O)NC3CC3)c2F)cn1` [I-T3-75], the efficacy in the data set on Lucilia cuprina amounted to 80%; with Boophilus microplus, 90%. Further, the “logP^a)” value in data set [1] amounted to 4.7.
For `CCc1cc(C(F)(C(F)(F)F)C(F)(F)F)ccc1-n1cc(-c2cncc(C(=O)NC3(C#N)CC3)c2)cn1` [I-T3-78], the efficacy in the data set on Lucilia cuprina, in the data set on Ctenocephalides felis and with Boophilus microplus was 100% throughout. Also, in data set [1], the “logP^a)” value stood at 3.8.
For the compound `CCc1cc(C(F)(F)C(F)(F)F)cc(C)c1-n1cc(-c2ccc(Cl)c(C(=O)NCC(F)(F)F)c2)cn1` [I-T3-82], the figures for the efficacy with Lucilia cuprina, in the data set with Ctenocephalides felis and with Boophilus microplus were 100%, 95% and 100%, respectively. For the same compound, in data set [1], the “logP^a)” value stood at 4.0.
Take `CCc1cc(C(F)(F)C(F)(F)F)cc(C)c1-n1cc(-c2ccc(Cl)c(C(=O)NC3CSC3)c2)cn1` [I-T3-83]: the values for the efficacy with Lucilia cuprina, in the data set on Ctenocephalides felis and in the data set with Boophilus microplus were 100%, 95% and 100%, respectively. Further, in data set [1], the “logP^a)” value worked out at 4.6.
`Cc1cc(C(F)(C(F)(F)F)C(F)(F)F)cc(C)c1-n1cc(-c2cnc(C3CC3)c(C(=O)NC3CC3)c2)cn1` [I-T3-140]: the efficacy in the data set on Lucilia cuprina, with Ctenocephalides felis and in the data set on Boophilus microplus was 100% throughout. The “log P” value in data set [1] was found to be 4.2.
`Cn1ccc(NC(=O)c2cc(-c3cnn(-c4c(Cl)cc(C(F)(F)F)cc4Cl)c3)cnc2Cl)n1` [I-T3-146]: the values for the efficacy in the data set on Lucilia cuprina, in the data set on Ctenocephalides felis and in the data set on Boophilus microplus were 90%, 100% and 100%, respectively. Moreover, the log partition coefficient (log P) in data set [1] came out at 2.8.
